Results reported in patent US20110150976A1, “TRANSDERMAL DELIVERY OF OLIGOSACCHARIDES” (TRANSPHARMA MEDICAL LTD., priority 2008, published 2011).
Read-outs that look alike come from different tables or passages of the source.

Legend:
[1] = design: species or system pigs; conditions: pig, in vivo
Description: Transdermal delivery of fondaparinux from a printed patch through micro-channels generated in pig skin by the […] apparatus was evaluated. The experiment included the following groups: • 1. […] To prepare the printed patches containing fondaparinux, a concentrated reconstituted solution of Arixtra® (fondaparinux sodium) was applied onto the patch and then air-dried. Each patch was affixed to the […] treated skin for 24 hours.

[2] = In-vitro dissolution of printed patches; format: physicochemical; conditions: printed patches 5 mg fondaparinux with 3.6 mg NaCl, from lyophilized Arixtra
Description: As the printed patches were prepared following lyophilization of the Arixtra® for injection, 5 mg fondaparinux in each patch contained 3.6 mg of NaCl (42% of the total patch solids).

[3] = design: species or system pigs; conditions: pig, in vivo; remark: listed apart in the source
Description: Transdermal delivery of fondaparinux from a silicon pouch containing the pentasaccharide in solution through micro-channels generated in pig skin by the […] apparatus was evaluated. The experiment included the following groups: • 1.

[4] = Histological assessment of skin after micro-channel generation and treatment with fondaparinux; format: in vivo; conditions: pigs, 450 MCs/cm^2, dried patch 1.25 mg, biopsies 13 and 22.5 hours post application
Description: Histological assessments were performed in order to determine the effect of application of a high concentration of fondaparinux to skin in which micro-channels have been generated. Pigs were treated with […] apparatus to generate micro-channels at a density of 450 MCs/cm^2 (burst length of 6000 μsec). […] All biopsies (8 mm diameter) were fixed in 4% formaldehyde buffer for at least 48 hrs followed by staining with eosin and hematoxylin (H&E).

[5] = human; cited from earlier work

bioavailability from printed patches ([1]; 5 mg): 11-17%
% BA (bioavailability) ([1]; sc, 1 mg): 100%
AUC ([1]; sc, 1 mg): 291 1.25 ± 2242.07 ng*h/ml
Tmax ([1]; sc, 1 mg): 2 h
in-vitro dissolution of printed patches [2]: ~85%
AUC ([3]; sc, 1 mg): 1533.33 ± 1303.96 ng·h/mL
Cmax ([3]; sc, 1 mg): 235.72 ± 47.79 ng/mL
AUC ([3]; topical or ocular, 28 mg): 5659.33 ± 956.94 ng·h/mL
Cmax ([3]; topical or ocular, 28 mg): 709.74 ± 103.61 ng/mL
abnormalities in the skin tissue (histology, H&E) [4]: no abnormalities
signs of bleeding at the site of the treated skin (histology, H&E) [4]: no signs of bleeding
SMILES: CO[C@H]1O[C@H](COS(=O)(=O)O)[C@@H](O[C@@H]2O[C@@H](C(=O)O)[C@@H](O[C@H]3O[C@H](COS(=O)(=O)O)[C@@H](O[C@@H]4O[C@H](C(=O)O)[C@@H](O[C@H]5O[C@H](COS(=O)(=O)O)[C@@H](O)[C@H](O)[C@H]5NS(=O)(=O)O)[C@H](O)[C@H]4O)[C@H](OS(=O)(=O)O)[C@H]3NS(=O)(=O)O)[C@H](O)[C@H]2OS(=O)(=O)O)[C@H](O)[C@H]1NS(=O)(=O)O [fondaparinux]
half-life [5]: approximately 17 hours
